Results from patent publication US11447466B2, “Substituted indole compounds useful as inhibitors of TLR7/8/9” (BRISTOL-MYERS SQUIBB COMPANY, priority 2017, dated 2022).

Key:
Assay type in all cases: cell-based
human TLR7 = target: T1, human TLR7 (Homo sapiens, UniProt Q9NYK1); experiment: TLR7 inhibition reporter assay (HEK-Blue SEAP reporter, gardiquimod stimulation); settings: HEK-Blue cells overexpressing human TLR7, SEAP reporter, gardiquimod 7.5 μM, 22 hour incubation
T1 construct: host or cells: HEK-Blue cells
T1 sequence (Q9NYK1 27-1049): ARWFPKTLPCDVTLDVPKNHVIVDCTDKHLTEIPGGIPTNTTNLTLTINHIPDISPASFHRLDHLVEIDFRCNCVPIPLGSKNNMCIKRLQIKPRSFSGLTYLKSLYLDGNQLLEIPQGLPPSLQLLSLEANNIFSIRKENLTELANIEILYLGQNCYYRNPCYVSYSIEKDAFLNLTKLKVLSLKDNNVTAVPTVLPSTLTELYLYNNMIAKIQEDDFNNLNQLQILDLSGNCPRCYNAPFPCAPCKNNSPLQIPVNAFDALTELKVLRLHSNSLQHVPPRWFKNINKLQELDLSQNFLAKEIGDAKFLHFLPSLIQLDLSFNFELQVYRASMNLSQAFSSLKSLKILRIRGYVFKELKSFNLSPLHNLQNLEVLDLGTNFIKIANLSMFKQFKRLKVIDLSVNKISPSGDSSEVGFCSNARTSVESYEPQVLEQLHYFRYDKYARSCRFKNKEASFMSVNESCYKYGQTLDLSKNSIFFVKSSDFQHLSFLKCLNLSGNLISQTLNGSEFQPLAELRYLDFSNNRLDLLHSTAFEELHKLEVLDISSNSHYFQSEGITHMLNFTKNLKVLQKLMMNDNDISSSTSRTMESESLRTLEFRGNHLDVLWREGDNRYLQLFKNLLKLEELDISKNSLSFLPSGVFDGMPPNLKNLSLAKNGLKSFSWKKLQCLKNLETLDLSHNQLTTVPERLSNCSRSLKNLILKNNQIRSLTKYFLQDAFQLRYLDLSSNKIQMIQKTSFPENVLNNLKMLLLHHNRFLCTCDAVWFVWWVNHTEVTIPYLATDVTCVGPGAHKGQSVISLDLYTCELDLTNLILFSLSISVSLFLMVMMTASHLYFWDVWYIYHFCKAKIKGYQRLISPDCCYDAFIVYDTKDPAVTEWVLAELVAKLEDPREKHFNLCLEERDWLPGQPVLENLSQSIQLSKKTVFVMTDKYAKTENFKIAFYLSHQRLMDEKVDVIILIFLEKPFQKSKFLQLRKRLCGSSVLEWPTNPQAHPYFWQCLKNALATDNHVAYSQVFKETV
How it was run: (§1)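 Screening used HEK-Blue cells overexpressing one human TLR (7, 8 or 9) and an IFN-β minimal promoter–NF-κB/AP-1 SEAP construct. Stimulation lasted 22 h at 37 °C with receptor-specific agonist: gardiquimod, R848 or ODN2006 at 7.5 μM, 15.9 μM and 5 nM.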

human TLR9 = target: T2, human TLR9 (Homo sapiens, UniProt Q9NR96); experiment: TLR9 inhibition reporter assay (HEK-Blue SEAP reporter, ODN2006 stimulation); settings: HEK-Blue cells overexpressing human TLR9, SEAP reporter, ODN2006 5 nM, 22 hour incubation
T2 construct: host or cells: HEK-Blue cells
T2 sequence (Q9NR96 26-1032): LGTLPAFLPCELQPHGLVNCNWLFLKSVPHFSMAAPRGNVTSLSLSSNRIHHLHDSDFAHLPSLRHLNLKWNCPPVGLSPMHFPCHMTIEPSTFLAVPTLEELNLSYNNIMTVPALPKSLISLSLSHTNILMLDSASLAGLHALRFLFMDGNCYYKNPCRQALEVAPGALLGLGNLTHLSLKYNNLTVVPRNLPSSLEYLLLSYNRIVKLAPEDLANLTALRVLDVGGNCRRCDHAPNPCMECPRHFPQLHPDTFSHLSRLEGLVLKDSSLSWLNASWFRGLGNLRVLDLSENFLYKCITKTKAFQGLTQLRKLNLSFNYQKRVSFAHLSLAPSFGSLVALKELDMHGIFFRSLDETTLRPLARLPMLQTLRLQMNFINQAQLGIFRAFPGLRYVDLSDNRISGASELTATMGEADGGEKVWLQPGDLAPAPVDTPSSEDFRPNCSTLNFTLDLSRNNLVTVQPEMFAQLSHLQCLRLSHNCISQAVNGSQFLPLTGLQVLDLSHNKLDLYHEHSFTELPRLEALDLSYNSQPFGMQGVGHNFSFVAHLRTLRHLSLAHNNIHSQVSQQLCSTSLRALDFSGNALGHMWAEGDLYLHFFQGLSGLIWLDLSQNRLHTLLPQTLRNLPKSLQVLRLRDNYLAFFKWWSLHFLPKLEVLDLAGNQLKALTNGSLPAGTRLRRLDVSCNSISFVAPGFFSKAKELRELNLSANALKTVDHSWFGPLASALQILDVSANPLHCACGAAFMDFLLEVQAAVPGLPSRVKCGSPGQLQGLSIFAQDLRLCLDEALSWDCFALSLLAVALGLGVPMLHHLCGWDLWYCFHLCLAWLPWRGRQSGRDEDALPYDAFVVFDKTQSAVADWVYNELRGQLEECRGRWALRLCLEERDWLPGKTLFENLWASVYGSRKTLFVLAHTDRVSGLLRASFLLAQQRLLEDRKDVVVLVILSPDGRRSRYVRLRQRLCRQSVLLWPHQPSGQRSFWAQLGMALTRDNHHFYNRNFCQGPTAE
How it was run: as §1

human TLR8 = target: T3, human TLR8 (Homo sapiens, UniProt Q9NR97); experiment: TLR8 inhibition reporter assay (HEK-Blue SEAP reporter, R848 stimulation); settings: HEK-Blue cells overexpressing human TLR8, SEAP reporter, R848 15.9 μM, 22 hour incubation
T3 construct: host or cells: HEK-Blue cells
T3 sequence (Q9NR97 27-1041): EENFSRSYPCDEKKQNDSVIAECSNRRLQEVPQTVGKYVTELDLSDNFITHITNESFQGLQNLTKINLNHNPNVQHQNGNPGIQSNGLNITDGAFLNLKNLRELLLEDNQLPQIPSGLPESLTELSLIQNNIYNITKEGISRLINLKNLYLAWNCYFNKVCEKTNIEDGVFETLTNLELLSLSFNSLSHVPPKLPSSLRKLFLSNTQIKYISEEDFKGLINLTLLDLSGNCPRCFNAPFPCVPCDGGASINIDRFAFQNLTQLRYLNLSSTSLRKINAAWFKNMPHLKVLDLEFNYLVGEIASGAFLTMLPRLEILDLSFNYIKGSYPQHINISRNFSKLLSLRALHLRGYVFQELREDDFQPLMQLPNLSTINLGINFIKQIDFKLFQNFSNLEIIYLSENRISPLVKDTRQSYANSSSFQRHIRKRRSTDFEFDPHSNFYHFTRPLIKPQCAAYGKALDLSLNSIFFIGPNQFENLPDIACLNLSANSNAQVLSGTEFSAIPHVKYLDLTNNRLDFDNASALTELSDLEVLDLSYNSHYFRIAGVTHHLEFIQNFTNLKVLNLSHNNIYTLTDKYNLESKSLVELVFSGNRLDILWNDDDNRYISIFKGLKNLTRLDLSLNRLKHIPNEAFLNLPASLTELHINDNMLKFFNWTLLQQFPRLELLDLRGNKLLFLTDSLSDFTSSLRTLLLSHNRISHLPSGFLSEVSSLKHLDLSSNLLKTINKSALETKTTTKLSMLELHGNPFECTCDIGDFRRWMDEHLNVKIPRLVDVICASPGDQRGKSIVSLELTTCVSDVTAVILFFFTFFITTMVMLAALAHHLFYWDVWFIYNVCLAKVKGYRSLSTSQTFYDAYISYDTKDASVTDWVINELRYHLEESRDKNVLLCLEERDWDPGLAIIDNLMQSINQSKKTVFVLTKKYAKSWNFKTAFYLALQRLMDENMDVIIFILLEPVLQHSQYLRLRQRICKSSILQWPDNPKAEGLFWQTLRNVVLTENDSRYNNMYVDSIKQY
How it was run: as §1

Row | Compound | IC50 (human TLR7) [nM] | IC50 (human TLR9) [nM] | IC50 (human TLR8) [nM]
1 | CNCCN1CCC(c2ccc3[nH]c(-c4ccc(=O)n(C)c4)c(C(C)C)c3c2)CC1 [Example 172, 5-(3-isopropyl-5-(1-(2-(methylamino)ethyl)piperidin-4-yl)-1H-indol-2-yl)-1-methylpyridin-2(1H)-one] | 29.9 | 151 | 6.9
2 | CC(C)c1c(-c2ccc(=O)n(C)c2)[nH]c2ccc(C3CCN(C4COC4)CC3)cc12 [Example 175, 5-(3-isopropyl-5-(1-(oxetan-3-yl)piperidin-4-yl)-1H-indol-2-yl)-1-methylpyridin-2(1H)-one] | 275 | 15500 | 87.5
3 | CC(C)c1c(-c2ccc(=O)n(C)c2)[nH]c2ccc(C3CCN(C4CCOC4)CC3)cc12 (stereo not drawn) [Example 177, 5-(3-isopropyl-5-(1-(tetrahydrofuran-3-yl)piperidin-4-yl)-1H-indol-2-yl)-1-methylpyridin-2(1H)-one] | 154 | 9210 | 51.9
4 | CC(C)c1c(-c2ccc(=O)n(C)c2)[nH]c2ccc(C3CCN(C4COC4)CC3)cc12 [Example 179, 5-(3-isopropyl-5-(1-(oxetan-3-yl)piperidin-4-yl)-1H-indol-2-yl)-1-methylpyridin-2(1H)-one] | 95.1 | 3930 | 28.8
5 | Cc1nc(-c2[nH]c3ccc(C4CCN(C(C)C)CC4)cc3c2C(C)C)cn(C)c1=O [Example 184, 5-(3-isopropyl-5-(1-isopropylpiperidin-4-yl)-1H-indol-2-yl)-1,3-dimethylpyrazin-2(1H)-one] | 71.8 | 2120 | 34.2
6 | Cc1nc(-c2[nH]c3ccc(C4CCN(C5CCOCC5)CC4)cc3c2C(C)C)cn(C)c1=O [Example 185, 5-(3-isopropyl-5-(1-(tetrahydro-2H-pyran-4-yl)piperidin-4-yl)-1H-indol-2-yl)-1,3-dimethylpyrazin-2(1H)-one] | 61.3 | 4320 | 19
7 | Cc1nc(-c2[nH]c3ccc(C4CCN(C5COC5)CC4)cc3c2C(C)C)cn(C)c1=O [Example 186, 5-(3-isopropyl-5-(1-(oxetan-3-yl)piperidin-4-yl)-1H-indol-2-yl)-1,3-dimethylpyrazin-2(1H)-one] | 112 | 6730 | 75.5

These reach a lower IC50 (human TLR7). Values come first.

Row | IC50 (human TLR7) [nM] | IC50 (human TLR9) [nM] | IC50 (human TLR8) [nM] | Compound
8 | 28.5 | 9650 | 31.4 | Cc1nc(-c2[nH]c3ccc(C4CCN(C)CC4)cc3c2C(C)C)cn(C)c1=O [Example 183, 5-(3-isopropyl-5-(1-methylpiperidin-4-yl)-1H-indol-2-yl)-1,3-dimethylpyrazin-2(1H)-one]
9 | 15.7 | ≥ 50000 | 44.8 | CC(=O)N1CC(N2CCC(c3ccc4[nH]c(-c5cn(C)c(=O)c(Cl)c5C)c(C(C)C)c4c3)CC2)C1 [Example 174, 5-(5-(1-(1-acetylazetidin-3-yl)piperidin-4-yl)-3-isopropyl-1H-indol-2-yl)-3-chloro-1,4-dimethylpyridin-2(1H)-one]
10 | 7 | 5750 | 8.2 | Cc1cc(-c2[nH]c3ccc(C4CCN(C5CCOC5)CC4)cc3c2C(C)C)cn(C)c1=O (stereo not drawn) [Example 180, 5-(3-isopropyl-5-(1-(tetrahydrofuran-3-yl)piperidin-4-yl)-1H-indol-2-yl)-1,3-dimethylpyridin-2(1H)-one]
11 | 5.9 | 5550 | 7.3 | Cc1cc(-c2[nH]c3ccc(C4CCN(C(C)C)CC4)cc3c2C(C)C)cn(C)c1=O [Example 182, 5-(3-isopropyl-5-(1-isopropylpiperidin-4-yl)-1H-indol-2-yl)-1,3-dimethylpyridin-2(1H)-one]
12 | 5.1 | 25200 | 10.4 | Cc1cc(-c2[nH]c3ccc(C4CCN(C5COC5)CC4)cc3c2C(C)C)cn(C)c1=O [Example 171, 5-(3-isopropyl-5-(1-(oxetan-3-yl)piperidin-4-yl)-1H-indol-2-yl)-1,3-dimethylpyridin-2(1H)-one]
13 | 3.9 | 7090 | 3.2 | Cc1cc(-c2[nH]c3ccc(C4CCN(C5CCOCC5)CC4)cc3c2C(C)C)cn(C)c1=O [Example 178, 5-(3-isopropyl-5-(1-(tetrahydro-2H-pyran-4-yl)piperidin-4-yl)-1H-indol-2-yl)-1,3-dimethylpyridin-2(1H)-one]
14 | 2 | 13500 | 8.5 | Cc1cc(-c2[nH]c3ccc(C4CCN(C)CC4)cc3c2C(C)C)cn(C)c1=O [Example 181, 5-(3-isopropyl-5-(1-methylpiperidin-4-yl)-1H-indol-2-yl)-1,3-dimethylpyridin-2(1H)-one]
15 | 1.3 | 177 | 1.3 | CNCCN1CCC(c2ccc3[nH]c(-c4cc(C)c(=O)n(C)c4)c(C(C)C)c3c2)CC1 [Example 176, 5-(3-isopropyl-5-(1-(2-(methylamino)ethyl)piperidin-4-yl)-1H-indol-2-yl)-1,3-dimethylpyridin-2(1H)-one]
